Data taken from PMC10673250, “Exploring Alkyl Ester Salts of L-Amino Acid Derivatives of Ibuprofen: Physicochemical Characterization and Transdermal Potential” (Molecules, 2023).
In brackets after ≈: the same amount, converted by molar mass. Several values for one entry are separate records, joined by “and”; a condition that tells them apart may be missing. Equal entries are not always repeated. Structures can show the parent of a compound that is named as a salt. Where two headings read alike, the source gives them in different places.

How the values were obtained:
[1] = Partition coefficient n-octanol/water (shake-flask, HPLC); format: physicochemical; conditions: 25 °C
Protocol: For L-glutamic acid alkyl ester ibuprofenates, the partition coefficient was determined using n-octanol/water extraction. For this purpose, 10 mg of the substance, weighed with an accuracy of 0.01 mg, was mixed with 5 cm^3 of water saturated with n-octanol and 5 cm^3 of n-octanol saturated with water. The mixture was stirred vigorously at 25 °C for 3 h and then centrifuged at 7500 rpm·min^−1 at 25 °C for 10 min to separate the phases. The phases were then separated. The concentration of the compound was determined in the aqueous layer using the HPLC method (standard curve method).
The partition coefficient log P was calculated based on Equation (3):(3) logP=logcoct−logcw where: • cw and coct are the concentrations (mg·dm^−3) of the solute in the aqueous and octanol layers.
The concentration of the compound dissolved in octanol was calculated from Equation (4):(4) coct=c0−cw where: • c0 is the concentration of the compound calculated based on sample weights prepared for analysis.
The concentration of the substance in the aqueous layer was determined using the SHIMADZU Nexera-i LC-2040C 3D High Plus high-performance liquid chromatography method with a DAD/FLD detector. A mixture of 50% acetonitrile and 50% water was used as the moving fluid under isocratic conditions at a 1 cm^3·min^−1 flow rate. A Kinetex® 2.6 µm F5 100 Å column heated to 35 °C with dimensions of 150 × 4.6 mm^2 from Phenomenex was used. The spectra were recorded at a wavelength of 210 nm. The injection volume for these samples was 50 mm^3. Each measurement was performed three times, and the results were averaged. The concentration of ibuprofen and its salts was calculated from peak area measurements using the calibration curve method (Figure 8). The results were analyzed using LabSolutions/LC Solution System.

[2] = Thermogravimetric analysis (thermal stability); format: physicochemical
Protocol: Thermal stability was assessed using thermogravimetric studies performed on a […]1 Libra thermomicrobalance (Selb, Germany). The test was carried out in an oxidizing environment, with the flow of nitrogen (protective gas): 10 cm^3·min^-1, air: 25 cm^3·min^-1 in the temperature range from 25 to 1000 °C. Samples weighing approximately 5 mg were heated at 10 °C·min^-1. The decomposition onset temperature (Tonset) was calculated using the intersection of the tangents of the TG curve. The fastest decomposition temperatures (Tmax) were calculated using the first TG curve (DTG curve) derivative.

[3] = Permeability of the active substance through pig skin, Franz diffusion chambers, in vitro; conditions: for Jss, steady-state flux: 1% IBU in 70% ethanol, 37 °C; for Jss, steady-state flux / Q%24h, the percentage of the applied dose / CMP (cumulative permeation mass) / LT, lag time: n = 3; for Q%24h, the percentage of the applied dose / CMP (cumulative permeation mass): 24 h
Protocol: Tests for the penetration of the active substance through pig skin were performed using Franz diffusion chambers (Phoenix DB-6, ABL&E-JASCO, Vienna, Austria) with diffusion areas of 1 cm^2 according to the modified method [15].
Pig skin obtained from the belly was purchased from a local slaughterhouse. The outer layer, 0.5 mm thick, was then removed using a dermatome and cut into 2 cm × 2 cm pieces. Before use in the study, the skin was soaked in buffered saline (PBS) solution at pH 7.4.
Skin impedance assessment was performed using an LCR meter 4080 (Voltcraft LCR 4080, Conrad Electronic, Hirschau, Germany), which was operated in parallel mode at an alternating frequency of 120 Hz (error for kΩ values < 0.5%). The measurements were made by placing the tips of the measurement probes in the donor and acceptor chambers, separated by a skin sample. Both chambers were filled with PBS buffer pH 7.4. Skin samples with an impedance > 3 kΩ were used for testing, which corresponds to the electrical resistance of human skin [15, 18].
The acceptor chamber with a capacity of 10 cm^3 was filled with PBS solution (pH 7.4). A total of 1 cm^3 of a solution of ibuprofen or L-amino acid alkyl ester ibuprofenate with a concentration of 1% based on the active substance (ibuprofen) in 70% ethanol was placed in the acceptor chamber.
The experiment was conducted for 24 h at 37 °C. After 0.5 h, 1 h, 2 h, 3 h, 4 h, 5 h, 8 h, and 24 h from the start of the permeation experiment, 0.5 cm^3 samples of the acceptor fluid were taken, respectively, and refilled with fresh PBS solution. The content of ibuprofen or its salts in the acceptor liquid was determined by HPLC. Based on this concentration, the cumulative mass expressed as ibuprofen was calculated (µg IBU·cm^−2) [3, 19, 20, 21, 22].
The constant flow coefficient (in µg IBU·cm^−2·h^−1) through the pig skin into the acceptor fluid was determined as the slope of the plot of accumulated mass in the acceptor fluid as a function of time.
Steady-state flow was estimated from the slope of the linear part of the plot of accumulated mass in the acceptor phase over time. The lag time (LT) was determined based on the x-intercept of the linear part of the graph of accumulated mass in the acceptor phase over time. It was then used to calculate the permeability coefficient Kp using Equation (6):(6) Kp=Jss/C where: • C—concentration in the donor phase (µg·cm^−3).
The diffusion coefficient (D) was calculated based on Equation (7):(7) D=I^2/6·LT where: • I—diffusion path, skin thickness (mm).
The skin partition coefficient (Km) was calculated based on Equation (8):(8) Km=Kp·I/D

[4] = Solubility in water (saturated solutions, HPLC); format: physicochemical; conditions: water at 25 °C
Protocol: Water solubility was determined by obtaining saturated solutions of the obtained ibuprofenates. For this purpose, the appropriate amount of ibuprofen salt was weighed in a vial, poured with deionized water, and stirred vigorously on a magnetic stirrer at 25 °C for 24 h. After this time, the mixture was filtered using a syringe filter made of MCE (mixed cellulose esters) with a pore diameter 0.45 µm. Then, the filtrate was diluted one hundred times with acetonitrile: water solution (1:1). The concentration of the compound was determined by the HPLC method described in Section 3.2.9.

[5] = Accumulation in the skin after the permeation test, in vitro; format: in vitro ADME, pig; conditions: after 24 h permeation; for accumulation in pig skin: mean ± SD, n = 3
Protocol: After completing the permeation test, the skin was removed from the Franz chamber, then washed with 0.5% sodium lauryl sulfate solution and dried with a paper towel. After being thoroughly air-dried, the leather was cut into pieces and extracted with 2 cm^3 of methanol for 24 h at 4 °C. Then, the samples were homogenized using a homogenizer (IKA®T18 digital ULTRA TURRAX, Staufen, Germany) for 3 min and centrifuged at 3500 rpm·min^−1 for 5 min. After centrifugation, the solution was analyzed by HPLC. The accumulation of IBU and its salts in pig skin was calculated by dividing the amount of substance remaining in the samples by the weight of the skin sample and it was expressed as the weight of IBU per gram of skin (µg IBU·g^−1).

[6] = administered on an empty stomach, 71 healthy adults; cited from earlier work
[7] = pig skin, concentration 0.01 g·cm^−3; cited from earlier work
[8] = in terms of the active substance (ibuprofen)
[9] = TG, oxidizing environment, 10 °C·min^−1

| Compound | log P [1] | Tonset, the onset temperature of the thermal degradation [2] | Jss, steady-state flux [3] | Q%24h, the percentage of the applied dose [3] | Solubility in Water ([4]; as compound) | Solubility in Water [4, 8] | Tonset, the onset temperature of the thermal degradation [2, 9] | CMP (cumulative permeation mass) [3] | also measured |
| --- | --- | --- | --- | --- | --- | --- | --- | --- | --- |
| CCCCOC(=O)CCC(N)C(=O)OCCCC (stereo not drawn) [[Glu(OBu)2][HCl]] |  |  |  |  |  |  | 172.8 °C |  |  |
| CC(C)Cc1ccc(C(C)C(=O)O)cc1.CCOC(=O)C(N)CCC(=O)O (stereo not drawn) [[Glu(OEt)][IBU]] | 2.37 and 2.374 ± 0.001 | 194.2 °C | 30.855 ± 6.617 µg IBU·cm^−2·h^−1 | 0.566 ± 0.005% | 0.185 ± 0.003 g·dm^−3 | 0.100 ± 0.001 g IBU·dm^−3 |  | 0.100 ± 0.001 g IBU·dm^−3 | permeation rate difference compared to [Glu(OPent)][IBU] ([3]; after 24 h): approximately 0.5 μg∙h^−1; LT, lag time [3]: 0.029 ± 0.050 h |
| CC(C)Cc1ccc(C(C)C(=O)O)cc1.CCCCCOC(=O)C(N)CCC(=O)O (stereo not drawn) [[Glu(OPent)][IBU]] | 2.459 ± 0.002 | 206.9 °C | 57.098 µg IBU·cm^−2·h^−1 and 57.098 ± 29.761 µg IBU·cm^−2·h^−1 | 0.582 ± 0.047% | 0.208 ± 0.024 g·dm^−3 | 0.101 ± 0.012 g IBU·dm^−3 |  | 0.101 ± 0.012 g IBU·dm^−3 | accumulation in pig skin [5]: 625.895 ± 87.275 µg IBU·g^−1 pig skin; permeation rate relative to ibuprofen ([3]; within the first two hours): twice as high as ibuprofen |
| CC(C)Cc1ccc(C(C)C(=O)[O-])cc1.[Na+] (stereo not drawn) [IBUNa] |  |  |  |  |  |  |  |  | Cmax higher compared to rac-IBU [6]: approximately 30% |
| CCCCCOC(=O)CCC(N)C(=O)OCCCCC (stereo not drawn) [[Glu(OPent)2][HCl]] |  |  |  |  |  |  | 169.5 °C |  |  |
| CC(C)Cc1ccc(C(C)C(=O)O)cc1.CCC(C)OC(=O)C(N)CCC(=O)O (stereo not drawn) [[Glu(Osec-Bu)][IBU]] | 3.191 ± 0.007 | 204.2 °C | 22.296 ± 1.398 µg IBU·cm^−2·h^−1 | 0.456 ± 0.048% | 0.185 ± 0.024 g·dm^−3 | 0.093 ± 0.012 g IBU·dm^−3 |  | 0.093 ± 0.012 g IBU·dm^−3 |  |
| CCOC(=O)CCC(N)C(=O)OCC (stereo not drawn) [[Glu(OEt)2][HCl]] |  |  |  |  |  |  | 168.3 °C |  |  |

Continued, in another order:

| log P [1] | Tonset, the onset temperature of the thermal degradation [2] | Jss, steady-state flux [3] | Q%24h, the percentage of the applied dose [3] | Solubility in Water ([4]; as compound) | Solubility in Water [4, 8] | Tonset, the onset temperature of the thermal degradation [2, 9] | CMP (cumulative permeation mass) [3] | Compound | also measured |
| --- | --- | --- | --- | --- | --- | --- | --- | --- | --- |
| 2.860 ± 0.007 | 222.9 °C | 23.298 ± 3.459 µg IBU·cm^−2·h^−1 | 0.373 ± 0.0175% | 0.390 ± 0.011 g·dm^−3 | 0.203 ± 0.006 g IBU·dm^−3 |  |  | CC(C)Cc1ccc(C(C)C(=O)O)cc1.CC(C)OC(=O)C(N)CCC(=O)O (stereo not drawn) [[Glu(OiPr)][IBU]] | penetrated better than ibuprofen ([3]; versus ibuprofen): ~40%; solubility relative to ibuprofen (standard) ([4]; per active mass of ibuprofen): approximately three times higher |
| 2.380 ± 0.003 | 199.7 °C | 26.451 ± 2.253 µg IBU·cm^−2·h^−1 | 0.506 ± 0.008% | 0.230 ± 0.007 g·dm^−3 | 0.120 ± 0.004 g IBU·dm^−3 |  | 0.120 ± 0.004 g IBU·dm^−3 | CC(C)Cc1ccc(C(C)C(=O)O)cc1.CCCOC(=O)C(N)CCC(=O)O (stereo not drawn) [[Glu(OPr)][IBU]] |  |
|  |  |  |  |  |  | 174.4 °C |  | CC(C)OC(=O)CCC(N)C(=O)OC(C)C (stereo not drawn) [[Glu(OiPr)2][HCl]] |  |
|  |  |  |  |  |  | 181.5 °C |  | CCC(C)OC(=O)CCC(N)C(=O)OC(C)CC (stereo not drawn) [[Glu(Osec-Bu)2][HCl]] |  |
|  |  |  |  |  |  | 170.5 °C |  | CCCOC(=O)CCC(N)C(=O)OCCC (stereo not drawn) [[Glu(Opr)2][HCl]] |  |
| 3.000 ± 0.010 | 206.8 °C | 32.282 ± 7.809 µg IBU·cm^−2·h^−1 | 0.452 ± 0.026% | 0.217 ± 0.007 g·dm^−3 | 0.109 ± 0.004 g IBU·dm^−3 |  | 0.109 ± 0.004 g IBU·dm^−3 | CC(C)Cc1ccc(C(C)C(=O)O)cc1.CCCCOC(=O)C(N)CCC(=O)O (stereo not drawn) [[Glu(OBu)][IBU]] | accumulated mass relative to ibuprofen [5]: approximately 90%; accumulation in pig skin [5]: 931.823 ± 93.449 µg IBU·g^−1 pig skin; LT, lag time [3]: 0.102 ± 0.069 h |
|  |  | 26.539 ± 0.320 µg IBU·cm^−2·h^−1 | 0.302 ± 0.038% |  | 0.075 ± 0.001 g IBU·dm^−3 |  |  | CC(C)Cc1ccc(C(C)C(=O)O)cc1 (racemic) [IBU, (RS)-2-[4-(2-methylpropyl)phenyl]propionic acid, reference compound] | skin penetration rate [7]: 6%; accumulation in pig skin [5]: 1057.468 ± 200.589 µg IBU·g^−1 pig skin; logP [1]: 3.37; LT, lag time [3]: 0.153 ± 0.029 h; D·10^4, diffusion coefficient ([3]; n = 3, value is D·10^4): 27.926 ± 5.802 cm^2·h^−1; solubility at 24 h ([4]; deionized water, as compound): 75 ± 1 µg/mL (≈ 364 µM) |
